# Measurements from publication PMC12040169 (PLOS Biology, 2025).
# Assay: in vitro
# Conditions: human, hela cells, % viability
row,Structure (SMILES),"viability at 28.5 h, 10 µM [%]"
1,O=C(NC1CCN(Cc2ccccc2)CC1)c1cnc(-c2ccc(Cl)cc2)c(-c2cccnc2)c1 [CBK037602],92.2
2,O=C(c1cccnc1)C1CCN(C(=O)C2CCCCC2)CC1 [CBK283817],90
3,CC(C)NC(=O)c1ccc(-n2cccn2)c(C#Cc2cccnc2)c1 [CBK284523],94.3
4,COCC(=O)N[C@H]1CCN2C(=O)c3cc(-c4ccccc4F)ccc3NC(=O)[C@@H]2C1 [CBK289553],95.6
5,c1ccc(-c2ccc(COc3cncc(N4CCNCC4)n3)s2)nc1 [CBK008960G],85.4
6,CC(=O)N1CCC2(C/C=C/C[C@H]3CN(CCCc4ccccc4)CC[C@H]3NC(=O)CNC2=O)CC1 [CBK292140],90.9
7,O=C(O)C(Cc1c[nH]cn1)N1C(=O)C2CC=C(Cl)CC2C1=O (stereo not shown) [CBK286871],92.4
8,Cc1ccc(C(=O)Cn2c3ccccc3n3ncnc23)cc1 [CBK263081],99.6
9,O=C(NCCc1c[nH]c2cccc(C3(O)CCCC3)c12)C1CC1 [CBK285319],82.3
10,O=C(O)C1CCCN(C(=O)NCc2c(Cl)cccc2Cl)C1 (stereo not shown) [CBK161362],90
11,CCOC(=O)C(NC(=O)c1cn[nH]c1)c1cccc(C)c1C (stereo not shown) [CBK304175],92.8
12,COC(=O)CCCC(=O)n1ccn(-c2cccc(C(F)(F)F)c2)c1=O [CBK106580],87.6
13,Fc1ccccc1-c1nccnc1NCc1cccs1 [CBK038088],106
14,CC(C)C(=O)N[C@H]1C[C@@H](Cc2cc(CN3CCOCC3)on2)C1(C)C [CBK289248],99.8
15,O=C1NCCN1C1CCN(c2ncnc3ccccc23)CC1 [CBK304896],83.1
16,CCN(CC)CCN1CCN(c2cncc(-c3ccc(F)cc3F)n2)CC1 [CBK065668],107
17,CC1(C)Cc2c(ccc3ccccc23)C(CCN2CCCCC2)=N1 [CBK261746],116
18,CCc1cc(CNS(=O)(=O)Cc2cccc(F)c2)on1 [CBK283061],92.1
19,COc1cccc(C(=O)N2CCCC2c2cc3cccnc3[nH]2)c1 (stereo not shown) [CBK285082],96.4
20,COc1ccc(C(=O)C2=C(O)C(=O)N(CCCN(C)C)C2c2ccncc2)cc1C (stereo not shown) [CBK264871],102
21,c1ccc2c(c1)nc(N1CCNCC1)n1cnnc21 [CBK270145],100
22,O=C(O)CCc1nc2[nH]c(C(F)F)cc(=O)n2n1 [CBK286880],98.6

row,Structure (SMILES),"viability at 28.5 h, 10 µM [%]"
1,COc1ccc2[nH]c3c(c2c1)CCN(C=O)C31CCN(Cc2cccc(Cl)c2)C1 (stereo not shown) [CBK040376],97.3
2,CC1(C)Cc2c(cnn2-c2ccc(F)cc2)C(NS(C)(=O)=O)C1 (stereo not shown) [CBK307403],92.3
3,CCS(=O)(=O)N1CCC(c2onc3c2CCCCC3)CC1 [CBK284497],93.5
4,O=C(O)CCC(=O)N1CCN(S(=O)(=O)c2ccc(F)cc2)CC1 [CBK286956],93.2
5,O=c1ccc2c(-c3cccc(OCc4ccccc4)c3)ccnc2[nH]1 [CBK073739],87.6
6,CC(=O)Nc1ccc(Oc2cc(C)nc(C3CCNCC3)c2)cc1 [CBK283468],86.5
7,Cc1ccc(OCC(=O)NC(=S)Nc2cc(-c3nc4ncccc4o3)ccc2Cl)cc1 [CBK265214],103
8,Cc1csc2c(C3CCCN(C(=O)c4ccnn4C)C3)nc(C)n12 (stereo not shown) [CBK285215],96.9
9,COc1ccc(/C=C2\S/C(=N/N=C/c3ccc(OC)cc3)N(c3ccc(O)cc3)C2=O)cc1 [CBK262780],87.7
10,CN(C)CCN(C)C(=O)c1cc(Br)cnc1N1CCN(C(=O)c2ccco2)CC1 [CBK076514],93.8
11,COc1cc(CN(C)Cc2cccc3ccccc23)c([N+](=O)[O-])cc1OC [CBK261850],89.3
12,Cc1cc(C2CCCCCN2C(=O)c2c(C)noc2C)no1 (stereo not shown) [CBK284845],85.1
13,CC(C)N1CCC(CNC(=O)Cn2ccc3ccc(F)cc32)CC1 [CBK282571],89.9
14,COc1cc(CNc2ccccc2Cl)ccc1OCC(=O)O [CBK287045],89.7
15,Cc1ncc(CO)c(/C=N/N=C/c2ccc(O)c(O)c2)c1O [CBK265075],103
16,O=C(O)Cn1nnc(-c2ccc(OCc3ccccc3)cc2)n1 [CBK269755],85.1
17,Cc1ncccc1-c1csc(C2CCCO2)n1 (stereo not shown) [CBK304121],117
18,Cc1cc(Cl)c(S(=O)(=O)Nc2ccc(Oc3ccccc3)cc2)cc1OCC(N)=O [CBK266583],99.8
19,COc1cc(-c2nccnc2N(C)Cc2ccccc2)cc(OC)c1OC [CBK037424],96.5
20,N#CC1=C(N)N2C(=C(C#N)C13CCN(Cc1ccccc1)CC3)Nc1ccccc12 [CBK267241],108
21,COc1ccc(C(=O)N2CCN(c3ncnc4onc(C)c34)CC2)cc1 [CBK304372],93.5
22,O=S(=O)(Cc1ccc(-c2nc(-c3ccncc3)no2)o1)c1ccccc1 [CBK288579],96.6

row,Structure (SMILES),"viability at 28.5 h, 10 µM [%]"
1,COc1ccc(C)cc1S(=O)(=O)N(CC(=O)N1CCN(C)CC1)c1cccc(C(F)(F)F)c1 [CBK269355],96.2
2,CCOC(=O)C1(Cc2cc(-c3ccccc3)no2)CCCNC1 (stereo not shown) [CBK284583],98.9
3,CCn1cncc1CN(CCCn1ccnc1)CC1CC=CCC1 (stereo not shown) [CBK283220],101
4,COc1ccc(O)c(CN2CCC(N3CCCCC3)CC2)c1 [CBK261849],94.9
5,COc1cc(OC)cc(C(=O)Nc2cccc(-c3nc4ccccc4o3)c2)c1 [CBK097706],95.5
6,CC(C)NC(=O)NC[C@H]1C[C@@H]2CC[N@]1C[C@@H]2CN1CCN(c2ccccn2)CC1 [CBK289112],105
7,Cc1nc2ccccc2c(SCCC(=O)O)c1Cc1ccccc1 [CBK144942T],88.9
8,CC1CN(Cc2cccc(CNc3nccnc3C#N)c2)CCO1 (stereo not shown) [CBK304736],94
9,Cc1nonc1CC(=O)N1CCC[C@@H]2[C@H]1C/C=C/Cc1ccccc1OCC(=O)N2C [CBK292062],88.3
10,OC1(Cn2cnc3ccccc32)CCN(Cc2ccc(F)cc2)CC1 [CBK284661],85.7
11,Cc1nc2ccc(Cl)cn2c1CN1CCN(C2CCCC2)C(=O)C1 [CBK281452],84
12,O=[N+]([O-])c1ccc(/C=C/c2nn3c(Cn4cnc5ccccc54)nnc3s2)cc1 [CBK268273],104
13,COc1ccc(S(=O)(=O)NC(C)C(=O)Nc2cc(Cl)ccc2OC)cc1 (stereo not shown) [CBK269479],104
14,NC(=S)Nn1c(CCC(=O)O)ccc1-c1ccccc1 [CBK265942],100
15,Cc1nc(NS(=O)(=O)c2c(C)noc2C)sc1C(=O)N1CCOCC1 [CBK050574],98.4
16,CC(=O)N1C[C@H]2CCCN(S(=O)(=O)c3ccc(F)cc3)[C@H]2C1 [CBK285283],88.8
17,C=CCC(NCc1ccccc1)c1ccc(C(=O)O)o1 (stereo not shown) [CBK286591],84.1
18,COc1ccccc1-c1nn2c(Cn3nnc4ccccc43)nnc2s1 [CBK268373],82.4
19,Cc1noc(C)c1CC(=O)NCc1ccc(CN2CCCCC2)cc1 [CBK281422],93.6
20,Cc1cc2c(cc3c(=O)n(CC(=O)NC4CCCC4)nc(C)n32)s1 [CBK284072],96.9
21,COCCNCCOc1c(Cl)cc(C)cc1Br [CBK265087G],113
22,Cc1cc(C)c2c(c1)cc(C)c1nn(CC(=O)N3CCCC3)c(=O)n12 [CBK283876],85.5

row,Structure (SMILES),"viability at 28.5 h, 10 µM [%]"
1,OC1(c2ccc(F)cc2)CC2CCC(C1)N2CC1=CCCOC1 (stereo not shown) [CBK282942],106
2,CN1CCN(C)C(COc2nc3cc(Cl)c(Cl)cc3nc2N2CCCC2)C1 (stereo not shown) [CBK115294],92
3,CCNC(=O)C1=C(C(=O)NCC)N2C(=NC(C)(C)c3ccccc32)S1 [CBK010172],102
4,O=C(CSc1nc2ccccc2[nH]1)Nc1cccc(C(=O)O)c1 [CBK263225],105
5,CC(C)S(=O)(=O)N1C[C@@H](c2ccccc2)[C@H]2[C@H]1CCCCCN2C [CBK283083],91.1
6,CCC1CCCCN1C(=O)c1ccc(OC)c(OC)c1 (stereo not shown) [CBK084527],117
7,C=CCn1c(SCC(=O)Nc2sc3c(c2C#N)CCC3)nc2scc(-c3ccccc3)c2c1=O [CBK264477],104
8,CCNc1cncc(-c2ccc(C(N)=O)cc2)n1 [CBK065414],96.2
9,Cc1nc[nH]c1CN(Cc1cccc(F)c1)Cc1ccco1 [CBK282493],75.7
10,N#Cc1ccc(-c2nc3cc(Cl)c(F)cc3[nH]2)cc1 [CBK096290],90.6
11,COC(=O)C1=C(C)OC(n2cccc2)=C(C#N)C1c1cc(OC)c(O)c(OC)c1 (stereo not shown) [CBK293994],101
12,CS(=O)(=O)N1CCc2cc(-c3csc(N)n3)ccc21 [CBK304596],102
13,COC(=O)CCc1ccc(S(=O)(=O)N2CCCN(Cc3cccc(C(F)(F)F)c3)CC2)cc1 [CBK062983],100
14,CCN1CCN(Cc2ccc(OC)c(OCc3ccccc3)c2)CC1 [CBK261910],89.4
15,Cc1ccc(-c2cc(C(=O)N3CCOCC3)c3cc(Br)ccc3n2)cc1 [CBK066901],86.4
16,CN(C)c1ccc(-c2nnc([C@H]3CCN(C(=O)c4ccccc4)C3)o2)cc1 [CBK289407],85.7
17,COc1cccc(C(=O)Nc2cc3c(cc2C(O)c2ccccc2Cl)OCCO3)c1 (stereo not shown) [CBK268004],99.3
18,CCCCN(C)S(=O)(=O)NCCc1cn2ccccc2n1 [CBK304543],101
19,COC[C@H]1CCCN1C(=O)[C@@H](C)C1CC[C@@]2(C)CC[C@H](NC(C)=O)[C@@H](C)[C@@H]2[C@H]1O (stereo partly shown) [CBK289438],110
20,CC[C@@H]1C(=O)OC[C@@H]1Cc1cncn1C [CBK005338C],85.3
21,CC1CCCN(CC(O)COCc2ccc3c(c2)OCO3)C1 (stereo not shown) [CBK262830C],105

# Same assay, conditions: human, hela cells, % viability, bulk resorufin, single well
row,Structure (SMILES),"viability at 28.5 h, 10 µM [%]"
1,CCOC(=O)N1CCC2(CC1)Oc1ccc(-c3ccc(OC)cc3OC)cc1O2 [CBK091467],99.7
